Entries after “also recorded” stand apart in the source; their conditions may differ. Numbered stars: 1 amine (or outer) side, 2 acyl side, 3 side chain; on linkers, the order of the positions; unused ones are H or OH. Square brackets hold non-standard residues; d marks the D form. Ends that are not written are not given here. Suc = O=C(CCC(=O)[*:2])[*:1]; β3hL = CC(C)C[C@H](N)CC(=O)O; 2Abf = not defined here
Legend:
Macrosiphum rosae = experiment: Desiccation/starvation tolerance assay after peptide microinjection; assay type: in vivo; conditions: Macrosiphum rosae, microinjection; for Documented effect on desiccation/starvation mortality: final concentration ×10^−5 M, relative to vehicle control; for LTime50 (h), test / Median IQR survival (h), test: ×10^−5 M, desiccation and starvation stress, test group
Method: (§1) Neuropeptides were administered to test aphids via microinjection to allow for rapid mass screening of neuropeptide analogue efficacy. For this, native neuropeptides were diluted in double distilled water (DDH2O) to a concentration of 1×10^−5 M. Neuropeptide analogues were diluted in DDH2O to the following concentrations: kinin analogues 1728 (2.5×10^−5 M), 2139 (3.5×10^−5 M), 2139-Ac (3.5×10^−5 M); CAP2b analogues 1895 (3.5×10^−5 M), 1896 (3.5×10^−5 M), 1902 (3.5×10^−5 M), 2089 (3.9×10^−5 M), 2123 (1.0×10^−5 M), 2125 (1.0×10^−5 M), 2129 (2.0×10^−5 M). Once at the desired concentration, neuropeptide solutions were administered to test aphids at an injection volume of 9 nl based on total haemolymph volume, to produce an approximate 1:20 dilution of injection volume to haemolymph. Injections were performed using a pulled glass needle and a Nanoject II Auto-Nanoliter Injector (Drummond Scientific Company, Broomall, Pa.). A vehicle control was set up for each treatment/day of experiments to account for variation in needle pulling. For this, control aphids were injected with 9 nl of DDH2O and subsequently exposed to the same experiments as aphids receiving the neuropeptide treatment. Neuropeptide treated and vehicle control aphids were subsequently used in the stress bioassays detailed below.
(§2) Anholocyclic adults of mixed age of either M. persicae or M. rosae were selected from the stock cultures and treated with a native neuropeptide or neuropeptide analogue via microinjection using the method detailed above. Treated and vehicle control aphids were allowed to recover on excised leaves of the host plant for 1 h before being placed in an empty ventilated microcage (L=4 cm, 0=9.5 cm) at densities of 10 per cage. In total, 30-40 aphids were treated for each neuropeptide treatment group and a further 30-40 for the associated vehicle control group. From the point of placement in the microcage (taken as 0 h), aphid survival was checked every hour during daylight hours and approximately every 4 h during night-time hours until the final aphid died. Survival data were subsequently analysed using a Log-rank (Mantel-Cox) text in GraphPad Prism version 7.0. LTime50 (the time taken to kill 50% of the test population) values were calculated via Probit Analysis in Minitab 17 (Minitab Inc., State College, Pa.).

Myzus persicae [1] = experiment: as above; assay type: in vivo; conditions: Myzus persicae, microinjection; for Documented effect on desiccation/starvation mortality: final concentration ×10^−5 M, relative to vehicle control; for LTime50 (h), test / Median ± IQR survival (h), test: ×10^−5 M, desiccation and starvation stress, test group
Method: as §1, §2

Aphids = experiment: Feeding with peptides in artificial diet, mortality without other stress; assay type: in vivo, Myzus persicae; conditions: for effect on mortality in the absence of additional stressors: no additional stress conditions
Method: A standard artificial diet for M. persicae was produced as described in Van Emden (2009) and provided the basal diet to which neuropeptide analogues were added for screening purposes. Neuropeptide analogues were diluted individually in the artificial diet to a pre-determined recommended concentration as follows: 1895 (3.5×10^−5 M) and 2019 (2.0×10^−5 M).
Feeding apparatus were constructed using a set-up developed by Sadeghi et al (2009). For this, a piece of Parafilm was stretched over a Plexiglas ring (h=4 cm, Ø=3 cm) and 100 μl of the artificial diet containing the desired neuropeptide analogue was pipette onto the Parafilm membrane. A second piece of Parafilm, stretched to 4 times the original thickness, was stretched over the original layer, sandwiching the artificial diet between two layers of Parafilm. A strip of Parafilm was wrapped around the circumference of the Plexiglas ring, sealing in the diet. A plastic ring (h=1.2 cm, Ø=3.4 cm) was subsequently placed over the Parafilm layer, creating a walled chamber in which to house test aphids in contact with the Parafilm layer containing the artificial diet. Finally, a small Petri dish (h=1 cm, Ø=3.6 cm), modified for ventilation with net cloth, was placed on top of each feeding apparatus to prevent aphid escape.
To obtain aphids for use in experiments, reproducing anholocyclic adults were placed on individual excised leaves of Chinese cabbage at densities of 5 adults per leaf and allowed to reproduce for 24 h. The stem of each excised leaf was held within a 0.5 mL Eppendorf tube containing water via a punctured hole in the Eppendorf lid, and placed individually within a microcage (L=4 cm, Ø=9.5 cm). Following 24 h, adults were removed and resultant first instar nymphs (<1 day old and synchronised in age to within 24 h) retained. Nymphs were allowed to develop on the Chinese cabbage for 5 days. On day 5, (3rd instar) nymphs were transferred onto the artificial diet containing a neuropeptide analogue at densities of 1 per feeding chamber and monitored daily until death. Aphids were transferred to fresh artificial diet (containing neuropeptide analogue) every 5 days. Life history traits recorded include age at first reproduction, number of nymphs produced per 24 h period, and lifespan. From these parameters, lifetime fecundity and daily fecundity were calculated. Control groups were set up involving aphids reared on the host plant, an artificial diet without a neuropeptide analogue, and an artificial diet containing the native CAPA neuropeptide.
Aphids were reared on artificial diet, alone or supplemented with peptide 2129, 2315, 2316 or 2320. A control group (no test peptide) was reared on a host plant. No other stress conditions were applied.
For peptides 2315, 2316 and 2320, mortality was assessed at 48, 72, 96, 120 and 144 hours. A group of 9 or 10 insects was used for each time point, and all experiments were performed at least 4 times.

Myzus persicae [2] = experiment: Feeding of aphids with peptides in artificial diet; life span and fecundity; assay type: in vivo; conditions: M. persicae on artificial diet containing the peptide; mean ± SE
Method: A standard artificial diet for M. persicae was produced as described in Van Emden (2009) and provided the basal diet to which neuropeptide analogues were added for screening purposes. Neuropeptide analogues were diluted individually in the artificial diet to a pre-determined recommended concentration as follows: 1895 (3.5×10^-5 M) and 2019 (2.0×10^-5 M). Feeding apparatus were constructed using a set-up developed by […] et al (2009). For this, a piece of Parafilm was stretched over a Plexiglas ring (h=4 cm, Ø=3 cm) and 100 μl of the artificial diet containing the desired neuropeptide analogue was pipette onto the Parafilm membrane. A second piece of Parafilm, stretched to 4 times the original thickness, was stretched over the original layer, sandwiching the artificial diet between two layers of Parafilm. A strip of Parafilm was wrapped around the circumference of the Plexiglas ring, sealing in the diet. A plastic ring (h=1.2 cm, Ø=3.4 cm) was subsequently placed over the Parafilm layer, creating a walled chamber in which to house test aphids in contact with the Parafilm layer containing the artificial diet. Finally, a small Petri dish (h=1 cm, Ø=3.6 cm), modified for ventilation with net cloth, was placed on top of each feeding apparatus to prevent aphid escape. To obtain aphids for use in experiments, reproducing anholocyclic adults were placed on individual excised leaves of Chinese cabbage at densities of 5 adults per leaf and allowed to reproduce for 24 h. The stem of each excised leaf was held within a 0.5 mL Eppendorf tube containing water via a punctured hole in the Eppendorf lid, and placed individually within a microcage (L=4 cm, Ø=9.5 cm). Following 24 h, adults were removed and resultant first instar nymphs (<1 day old and synchronised in age to within 24 h) retained. Nymphs were allowed to develop on the Chinese cabbage for 5 days. On day 5, (3rd instar) nymphs were transferred onto the artificial diet containing a neuropeptide analogue at densities of 1 per feeding chamber and monitored daily until death. Aphids were transferred to fresh artificial diet (containing neuropeptide analogue) every 5 days. Life history traits recorded include age at first reproduction, number of nymphs produced per 24 h period, and lifespan. From these parameters, lifetime fecundity and daily fecundity were calculated. Control groups were set up involving aphids reared on the host plant, an artificial diet without a neuropeptide analogue, and an artificial diet containing the native CAPA neuropeptide.

Substance	Documented effect on desiccation/starvation mortality (Macrosiphum rosae)	LTime50 (h), test (Macrosiphum rosae)	Median IQR survival (h), test (Macrosiphum rosae)	Documented effect on desiccation/starvation mortality (Myzus persicae [1])	LTime50 (h), test (Myzus persicae [1])	Median ± IQR survival (h), test (Myzus persicae [1])	further results
2Abf-Suc-FTPRI-NH2 ({2Abf-Suc}-FTPRI-NH2; reading uncertain; also: printed as 2Abf-Suc-FTPRI-NH2) [compound 1896]	No effect	28.9 | 24.7 h	27.0 ± 17.3 | 23.0 ± 18.5 h	No effect	22.2 | 24.8 h	24.0 ± 0 9.0 | 25.0 ± 10.5 h	–
2Abf-Suc-FT[Hyp]RV-NH2 [compound 2123]	No effect	21.6 | 19.1 h	24.0 ± 11.0 | 16.0 ± 18.0 h	No effect	24.3 | 21.1 h	25.0 ± 13.5 | 21.0 ± 13.5 h	–
2Abf-Suc-FTPRV-NH2 ({2Abf-Suc}-FTPRV-NH2; reading uncertain; also: printed as 2Abf-Suc-FTPRV-NH2) [compound 2089]	No effect	23.2 | 16.4 h	23.0 ± 17.0 | 17.0 ± 21.3 h	No effect	10.9 | 13.0 h	11.0 ± 12.0 | 16.5 ± 10.3 h	–
ASGL[βhL]AFPRV-NH2 (ASGL[β3hL]AFPRV-NH2; N-terminus assumed; SMILES CC(C)C[C@@H](CC(=O)N[C@@H](C)C(=O)N[C@@H](Cc1ccccc1)C(=O)N1CCC[C@H]1C(=O)N[C@@H](CCCNC(=N)N)C(=O)N[C@H](C(N)=O)C(C)C)NC(=O)[C@H](CC(C)C)NC(=O)CNC(=O)[C@H](CO)NC(=O)[C@H](C)N) [compound 2316]	–	–	–	–	–	–	Dead (48 h) (Aphids; artificial diet supplemented with peptide, 48 h): 86.0%; Dead (72 h) (Aphids; artificial diet supplemented with peptide, 72 h): 88.0%; Dead (96 h) (Aphids; artificial diet supplemented with peptide, 96 h): 90.0%; Dead (120 h) (Aphids; artificial diet supplemented with peptide, 120 h): 92.0%; Dead (144 h) (Aphids; artificial diet supplemented with peptide, 144 h): 92.0%; effect on mortality in the absence of additional stressors (Aphids): increase mortality in the absence of additional stressors; effect on mortality in the absence of additional stressors (Aphids; listed as 2136): increase mortality in the absence of additional stress conditions
[Aib]FF[Aib]WG-NH2 [compound 1728, reference compound]	No effect	31.7 | 31.6 h	29.5 ± 22.0 | 24.0 ± 28.5 h	No effect	18.3 | 25.0 h	22.0 ± 16.5 | 26.0 ± 23.5 h	–
FF[Aib]WG-NH2 [compound 2139, reference compound]	non-significant survival curves; also recorded: No effect	31.7 | 29.8 h	29.5 ± 22.0 | 27.0 ± 26.0 h	non-significant survival curves; also recorded: No effect	18.3 | 22.4 h	22.0 ± 16.5 | 25.0 ± 21.0 h	–
Native Kinin: native kinin neuropeptide based on the kinin structure of Drosophila melanogaster, synthesized by Cambridge Peptides (NSVVLGKKQRFHSWG; ends and bridges not checked) [reference compound]	–	–	–	–	–	–	Age at 1st reproduction (Myzus persicae [2]): 11.1 ± 0.5 days; Ave. daily fecundity (Myzus persicae [2]): 1.6 ± 0.2 nymphs; Days as reproducing adult (Myzus persicae [2]): 5.9 ± 1.0; Life span (Myzus persicae [2]): 18.8 ± 1.3 days; Lifetime fecundity (Myzus persicae [2]): 9.7 ± 1.9 nymphs
2Abf-Suc-FKPRL-NH2 ({2Abf-Suc}-FKPRL-NH2; reading uncertain; also: printed as 2Abf-Suc-FKPRL-NH2) [compound 1902]	No effect	28.9 | 26.4 h	27.0 ± 17.3 | 25.0 ± 10.0 h	No effect	22.2 | 21.8 h	24.0 ± 0 9.0 | 23.5 ± 7.0 h	–
GANMGLYAFPRVamide (GANMGLYAFPRV-NH2) [Native Capa, reference compound]	–	–	–	–	–	–	Age at 1st reproduction (Myzus persicae [2]): 11.2 ± 0.2 days; Ave. daily fecundity (Myzus persicae [2]): 1.6 ± 0.1 nymphs; Days as reproducing adult (Myzus persicae [2]): 7.6 ± 0.6; Life span (Myzus persicae [2]): 21.3 ± 0.7 days; Lifetime fecundity (Myzus persicae [2]): 12.0 ± 1.2 nymphs
